Experimental findings from patent US6015820A, “4-Aryl-thio-pyridin-2(1H)-ones, medicines containing them and their uses in the treatment of illnesses linked to HIV” (priority 1995, dated 2000) are described below.

Molecules are shown by their SMILES. pIC50: −log10 of the molar value. Like-named read-outs stand apart in the source and are kept apart here. Where only a bound is given, the exact number is not on record here.

For data set [1], the system named is HIV-1 resistant to Nevirapine (N119). Briefly: microbe, parasite or virus in culture. It counts as cell-based. The settings on record: for pIC50: Human immunodeficiency virus 1, CEM-SS. As to the method: The effects of the compounds were evaluated on the replication of HIV-1 (see Table 2) on CEM-SS cells (cell lines of the lymphocytic lineage) strongly infected with HIV-1 LAI as described by Moog et al. (Antiviral Research (1994), 24, 275-288). The CEM-SS and the HIV-1 resistant to Nevirapine (N119) carrying a point mutation at codon 181 of the IT, were supplied respectively by P. NARA and D. RICHMAN through the intermediary of the AIDS Research and Reference Reagent Program, Division of AIDS, NIAID, NIH (USA) (Catalogue references : No. 776 and No. 1392).
(§1) The virus production was measured by quantifying the activity of the inverse transcriptase associated with viral particles released into the culture supernatant. In short, cells were infected with 100 TCID50 for 30 minutes; after adsorption of the virus, unbound particles were removed by two washings and the cells were cultivated in the presence of different concentrations of the compounds tested for 5 days before determining the viral production. The concentration inhibiting 50% of the viral multiplication (IC50) came from the computer plot of the median effect of the dose effect results (Chou et al. Elsevier Science Publishers, Cambridge U.K. (1985), 19-28).

The next data set relates to PBMC. Kind of data set: cytotoxicity on PBMC. Type of data set: cell-based. The conditions noted are these: Table 4, 7200 min. As to the method: (§2) In parallel experiments, the cytotoxicity of the molecules was measured on non-infected cells, after an incubation of 5 days in the presence of these molecules, by using a […] titration (MTT test) based on the ability of the mitochondrial dehydrogenases of the living cells to reduce 3-(4,5-dimethylthiazol-2-yl)-2,5-diphenyltetrazolium bromide in formazan (Mosmann et al. J. Immunol. Methods ([…]), 65, 55-63). The concentration cytotoxic at 50% (CC50) is the concentration at which the DO540 has been reduced to half and is calculated by using the program mentioned above.

The nature of the next data set: cytotoxicity on PBMC. It counts as cell-based. The conditions noted are these: human; Table 4; line HIV-1 IIIB/PBMC. As to the method:
as §2

Data set [2] is described as follows: cytotoxicity on MT4 cells. It counts as cell-based. The settings on record: human, Table 4, line HIV-1 IIIB/MT4. As to the method:
as §2

The next data set addresses IT of HIV-2 (Human immunodeficiency virus type 2 (ISOLATE ROD), UniProt P04584). Briefly: inhibition of the inverse transcriptase of HIV-2. It counts as biochemical. The conditions noted are these: at concentrations at which the IT of HIV-1 was well inhibited (FIG. 9). As to the method: The system for the expression of the IT of HIV-2 in E.coli (B. Muller et al. (1991 J. Biol. Chem. 266, 14708-14713) was provided by Dr. R. Goody. The IT of the HIV-2 was purified in the same way as the IT of the HIV-1.
Incubation was carried out at 37° C. for 10 minutes in the presence of various matrix-primers.
a) Poly C-oligo dG: the reaction mixture contained a final volume of 0.05 ml, Tris-HCl 50 mM pH 8.0, MgCl2 5 mM, dithiothreitol 4 mM, 0.48 A260 /ml of poly C-oligo dG (5:1), 1.0 μCi of [^3 H]dGTP (28 Ci/mmole), dGTP 2 μM, KCl 80 mM, 1 μg of bovine serum albumin and IT 20-50 nM.
b) Poly A-oligo dT: the same conditions as in a), except that 0.48 A260 /ml of poly A-oligo dT (5:1), 0.5 μCi of [^3 H]dTTP (46 Ci/mmole), dTTP 20 μM were used.
The reactions were stopped by adding in the cold 1 ml of 10% trichloroacetic acid plus sodium pyrophosphate 0.1 M. The precipitates were filtered through nitrocellulose membranes, washed with 2% trichloroacetic acid, dried and counted in a PPO/POPOP/toluene scintillation mixture.
(§3) All the compounds were dissolved in dimethyl#sulphoxide (DMSO). The test samples were prepared in the presence of the same final concentration of DMSO. IC50 is the concentration required to inhibit the activity of the IT of the recombinant HIV-1 by 50%.

For data set [3], the target named is inverse transcriptase of HIV-1 (HIV-1 M:B_ARV2/SF2, UniProt P03369). Kind of data set: inverse transcription with HIV-1 RNA as natural matrix (complementary DNA, gel). Type of data set: biochemical. The conditions noted are these: FIG. 10; compound 7c 40-400 nM. As to the method: FIG. 10 illustrates the dose effect of compound 7c on the inhibition of the inverse transcriptase of HIV-1. The expected complementary DNA, 147 nucleotides long, is shown to the left of the gel (well 1). Wells 2 to 5 correspond to decreasing concentrations of compound 7c (well 2: 400 nM, well 3: 300 nM: well 4: 100 nM and well 5: 40 nM).
The pmCG6 plasmid containing the nucleotide fragment 1-4005 of the HIV-1 (pmal) in psP64, under the control of the promoter of the T7 bacteriophage was provided by Dr. J. L. Darlix. A strain of E.coli HB 101 (1035) recA was used for the amplification of the plasmid. After digestion of this clone with Hinc II and transcription in vitro by using the RNA T7 polymerase, RNAs were obtained from the +50 position of the pmal sequence. The transcription was carried out in vitro and the inverse transcription in the manner described by B. Bordier et al. (1992 Nucleic Acids Res. 20, 5999-6006).
as §3

The test system of data set [4] is HIV-1 4200 type E (primary isolate). Briefly: anti-HIV-1 activity, HIV-1 4200 type E (primary isolate)/PBMC. It counts as cell-based. The settings on record: Human immunodeficiency virus 1, Table 4. As to the method:
as §1
(§4) Thirty two compounds according to the invention were studied for their anti-HIV-1 biological activity. […] This compound was then tested with other colonies and other cell lines (Table 4).

For another data set, the system named is HIV-1 LAI. Briefly: anti-HIV-1 activity: replication of HIV-1 LAI on CEM-SS cells. It counts as cell-based. In outline: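 CEM-SS cells were infected with 100 TCID50 virus for 30 min, washed, then cultured 5 days with test compound at varied concentrations. Virus production was measured as reverse transcriptase activity in culture supernatant, and IC50 was derived by median-effect dose-effect analysis.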

In the next data set the test system is CEM-SS cells. Briefly: cytotoxicity on non-infected cells (MTT test). It counts as cell-based. The conditions noted are these: Table 3; non-infected cells, MTT, 5 days. In outline:
(§5)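 Non-infected cells incubated 5 days with compounds; viability by MTT reduction to formazan via mitochondrial dehydrogenases, read at OD540. CC50 is the concentration halving OD540.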

Data set [5] can be described thus: cytotoxicity on non-infected cells (MTT test). Type of data set: cell-based. The conditions noted are these: human. In outline:
as §5
A general note: Formazan colour is commonly taken as a measure of viable cells.

The next data set relates to HIV-2 D194. Kind of data set: anti-HIV-2 activity, HIV-2 D194/PBMC. It counts as cell-based. The conditions noted are these: Human immunodeficiency virus 2, Table 4. As to the method:
as §1, §4

IT of HIV-2, sequence (P04584 613-1171): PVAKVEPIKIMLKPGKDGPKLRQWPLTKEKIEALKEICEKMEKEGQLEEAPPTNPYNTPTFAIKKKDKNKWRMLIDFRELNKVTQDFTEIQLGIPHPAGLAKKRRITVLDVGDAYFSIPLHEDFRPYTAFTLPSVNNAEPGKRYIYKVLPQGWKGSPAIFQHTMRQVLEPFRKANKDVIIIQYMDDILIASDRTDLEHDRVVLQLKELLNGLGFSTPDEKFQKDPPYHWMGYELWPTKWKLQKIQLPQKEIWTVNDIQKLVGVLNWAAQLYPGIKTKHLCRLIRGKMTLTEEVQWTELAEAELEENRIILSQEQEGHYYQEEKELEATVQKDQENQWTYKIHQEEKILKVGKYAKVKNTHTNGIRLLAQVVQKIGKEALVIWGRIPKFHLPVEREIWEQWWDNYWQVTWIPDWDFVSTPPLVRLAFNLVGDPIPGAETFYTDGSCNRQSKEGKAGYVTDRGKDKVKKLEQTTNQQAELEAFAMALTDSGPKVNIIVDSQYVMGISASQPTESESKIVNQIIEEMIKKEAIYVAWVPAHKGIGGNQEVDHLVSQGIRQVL

Turning to `CCc1c(C)[nH]c(=O)c([N+](=O)[O-])c1Sc1cc(C)cc(C)c1` [Compound 7c, 5-ethyl-6-methyl-3-nitro-4-(3', 5'-dimethylphenyl)thio-pyridin-2(1H)-one], the pIC50 (in general, −log10 of the IC50, conventionally taken in molar units) in data set [1] was 7.64; in data set [1] (read-out: IC50, strain resistant to Nevirapine) it was 6.59; in data set [4], over 10.00; with HIV-1 LAI (Human immunodeficiency virus 1, 120 h, Table 2, HIV-1 LAI, CEM-SS cells, 5 days, read-out: IC50, anti-HIV-1 activity), 8.22; in the data set with HIV-1 LAI (Human immunodeficiency virus 1, CEM-SS, Table 4, HIV-1 (LA1)/CEMSS, read-out: IC50) it was over 9.40; in the data set with HIV-2 D194 it was under 5.00. In addition, the “SI (selectivity index)” value in data set [1] (Table 3, strain resistant to Nevirapine) is over 38; with HIV-1 LAI (Table 2, HIV-1 LAI, CEM-SS cells) it was over 1666. Also, the CC50 with PBMC (line HIV-1 6 type D/PBMC), in the data set with PBMC (line HIV-1 4200 type E/PBMC), in the data set on PBMC (line HIV-2 D194/PBMC) and with CEM-SS cells was over 10 µM each time. Moreover, the CC50 – broadly, the concentration giving 50% cytotoxicity – at 120 h in the data set “cytotoxicity on PBMC” is over 10 µM; in data set [2], over 10 µM; in data set [5] (cem-ss cells, Table 4, line HIV-1 (LA1)/CEMSS) it was over 10 µM; in data set [5] (Table 2, non-infected CEM-SS cells, MTT, 5 days), over 10 µM. For the same compound, the “effect on activity of the IT of HIV-2” value on IT of HIV-2 is reported as “not affected”. In addition, in [3], the “inhibition with RNA from HIV-1 as natural matrix” value is “strong inhibition”.
